Read-outs that look alike come from different tables or passages of the source.
Tests used:
CNR2 = assay: Gene expression custom microarray, human skin fibroblasts (Example 1): CNR2; assay type: cell-based; conditions: for fold induction at 10 µM: Skin fibroblast, read-out: CNR2↑ gene expression, fold increase or decrease vs untreated cells
Description: (§1) Cell cultures: A human skin fibroblast cell culture (or cultures) was obtained through the Coriell Cell Repository from the National Institute on Aging Cell Repository (Camden, N.J.), or Promocell GmbH (Heidelberg, Germany). The initial culture was selected from the following cell lines: AG13066, AG11557, AG11796 or GM03651E. The cell lines were derived from donors as follows:
(§2) Experimental phase: When the appropriate quantity of cells had been grown, they were detached as described above, but at the final step were seeded into each well of one or more 6 well dishes. Each well received 2 ml of the cell suspension so they were seeded equally. The dishes were returned to the incubator until 85-95% confluency was reached.
(§3) It is at this stage that all wells were rinsed in PBS after aspirating the growth media. The compound(s) to be tested were previously mixed into a suitable solvent (e.g., DMSO or ethanol) that can be diluted to the desired concentration of test compound (10 μl) in the culture wells without exceeding maximum solvent concentrations and adversely effecting cell viability, and mixed with basal media. NOTE: Standard maximum levels of solvent are 0.1% for DMSO and 0.5% for ETOH. The concentration of each test compound is found in Tables 1 & 2.
(§4) Every 2 wells on the 6 well plate served as a biological replicate for the purposes of RNA isolation and genetic expression evaluations making each 6 well dish an n=3 for the test compound(s) contained in the media. Negative control plates (no test compound(s) and only basal media) were also generated. The plates were returned to the incubator for 24 hrs.
(§5) At the end of the 24 hr time period, the plates were removed from the incubator, the test media aspirated, and the cells rinsed with PBS. RNA isolation is performed using the BioRad Aurum Total RNA Mini Kit (Hercules, Calif.) per manufacturer's protocol; which is described, in brief, below: • Add 350 μl of lysis buffer to each well. Pipet multiple times to ensure thorough lysis. Add lysed cells to the collection tube. • Add 350 μl of 70% ETOH to the collection tube and mix thoroughly. • Pipet the generated lysate onto the spin column placed in a new 2 ml tube. Centrifuge for 30 sec between 8,000 and 10,000 g. • Place the spin column containing the now bound RNA, in a new 2 ml tube. Add 700 μl of low stringency wash solution to the spin column. Centrifuge for 30 sec between 8,000 and 10,000 g. Discard the flow through and replace spin column. • Add 80 μl of DNase I dilution to the spin column and incubate at room temperature for 15 minutes. • Add 700 μl of high stringency wash solution to the column and centrifuge for 30 sec between 8,000 and 10,000 g. Discard flow through. • Add 700 μl of low stringency wash solution to the column and centrifuge for 60 sec between 8,000 and 10,000 g. Discard flow through. • Centrifuge for 2 minutes to remove residual wash solution. • Transfer spin column to new 1.5 ml collection tube and add 80 μl of elution solution to the column. Allow 1 minute for saturation of the membrane and then centrifuge for 2 minutes to complete the RNA elution. • Quantify the quantity of RNA and store at −20 C° until use (no more than 1 month)
(§6) The genes tested were: • Cannabinoid receptor 1 (CB1(CNR1)) • Cannabinoid receptor 2 (CB2 (CNR2)) • Fatty acid amide hydrolase (FAAH) • Monoacylglycerol lipase (MGLL, i.e., MAGL) • Peroxisome proliferator-activated receptor gamma (PPARG) • Nuclear factor kappa-light-chain-enhancer of activated B cells (NFκβ) • Interleukin 1 Alpha (IL1alpha) • Cyclooxygenase 1 (PTGS1, i.e., COX1) • Transient receptor potential cation channel subfamily A member 1 (TRPA1) • Transient receptor potential cation channel subfamily V member 1 (TRPV1) • Transient receptor potential cation channel subfamily M member 8 (TRPM8) • Hemoglobin Subunit Beta (HBB) REFERENCE GENE • Ribosomal Protein L13a (RPL13A) REFERENCE GENE […]

TRPA1 = assay: Gene expression custom microarray, human skin fibroblasts (Example 1): TRPA1; assay type: cell-based; conditions: for fold induction at 10 µM: Skin fibroblast, read-out: TRPA1↑ gene expression, fold increase or decrease vs untreated cells
Description: as §1, §2, §3, §4, §5, §6

[1] = human skin fibroblasts, 10 uM, 24 hr

`C=C(C)[C@@H]1CCC(C)=C[C@H]1c1c(O)cc(CCCCC)cc1O` [CBD, cannabidiol, reference compound] gave a fold induction at 10 µM (CNR2; Homo sapiens, 24 h) of 1.7 and a fold induction at 10 µM (TRPA1; Homo sapiens, 24 h) of 2.7.

`CCCCCCCCCCCCCCCC(=O)NCCO` [N-palmitoylethanolamide] was tested, and the “CNR2↑ gene expression, fold increase or decrease vs untreated cells” value (CNR2; [1]) was 3.9 fold and the “TRPA1↑ gene expression, fold increase or decrease vs untreated cells” value (TRPA1; [1]) was 8.2 fold.

In the case of `CC(C)[C@]12O[C@H]1[C@@H]1O[C@]13[C@]1(O[C@H]1C[C@H]1C4=C(CC[C@@]13C)C(=O)OC4)[C@@H]2O` [Triptolide], the fold induction at 10 µM (CNR2; [1]) is reported as 10.1 and the fold induction at 10 µM (TRPA1; [1]) is reported as 26.1.

From patent publication US20220202739A1, “ENDOCANNABINOID MIMETIC AND ANTI-INFLAMMATORY COMPOUND CONTAINING COMPOSITIONS, METHODS OF PREPARATION AND USES THEREOF” (priority 2019, published 2022)
